Literature values as cited in US20070092539A1 (priority 2003, published 2007).

Experiments:
rates with arthritis = conditions: experimental models on rates with arthritis, compared with other AINEs

For `Cc1cnc(NC(=O)C2=C(O)c3ccccc3S(=O)(=O)N2C)s1` [meloxicam, 4-hydroxy-2-methyl-N-(5-methyl-2-thiazolyl)-2H-1,2-benzotiazine-3-carboxamide-1,1-dioxide], the solubility in methanol (methanol) is given as “slightly soluble in methanol”, the solubility in water (water) is given as “practically insoluble in water” and the “therapeutic margin (ulcerogenic vs anti-inflammatory doses)” value (rates with arthritis) is given as “superior therapeutic margin over the other AINEs”.
